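In this assay, cells in 96-well plates receive the compound at five concentrations for 48 hours. Endpoints are linearly interpolated between the surrounding concentrations. Here, GI50 denotes the concentration required for 50% inhibition of growth. TGI denotes the concentration required for complete inhibition of growth.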 Some results are limits rather than exact numbers.

Test systems include KM12 colon; LOX IMVI melanoma; HL-60(TB) leukemia; UACC-62 melanoma; IGROV1 ovarian; DU-145 prostate; HCC-2998 colon; NCI-H23 lung; NCI/ADR-RES ovarian; BT-549 breast.
Assay in all cases: DTP human tumour cell line panel, 48 h

For the compound `CC(C)Nc1ncc2cc(Oc3ccc(F)cc3F)c(=O)n(C)c2n1`, the GI50 in the experiment with KM12 colon, with LOX IMVI melanoma, in the experiment with HL-60(TB) leukemia, with UACC-62 melanoma, with IGROV1 ovarian and in the experiment with DU-145 prostate was above 25 µM in each case. In addition, the GI50 in the experiment on HCC-2998 colon, in the experiment on NCI-H23 lung, in the experiment with NCI/ADR-RES ovarian and in the experiment with BT-549 breast was above 25 µM in each case. In addition, the TGI in the experiment on KM12 colon, in the experiment on LOX IMVI melanoma, with HL-60(TB) leukemia, in the experiment on UACC-62 melanoma, with IGROV1 ovarian and in the experiment with DU-145 prostate was above 25 µM throughout. Also, the TGI with HCC-2998 colon, in the experiment with NCI-H23 lung, in the experiment with NCI/ADR-RES ovarian and in the experiment with BT-549 breast was above 25 µM each time.
With `CCSc1nnc(-c2ccc3ccccc3c2O)n1-c1ccc(Cl)cc1`, the GI50 (usually the concentration giving 50% growth inhibition) was above 100 µM in the experiment with KM12 colon; 5.52 µM in the experiment on LOX IMVI melanoma; 7.16 µM in the experiment with HL-60(TB) leukemia; 4.6 µM in the experiment with UACC-62 melanoma; 4.42 µM in the experiment with IGROV1 ovarian; 13.1 µM in the experiment on DU-145 prostate. The GI50 in the experiment on HCC-2998 colon was above 100 µM; with NCI-H23 lung it was above 100 µM; in the experiment with NCI/ADR-RES ovarian it was 4.45 µM; in the experiment on BT-549 breast, above 100 µM. In addition, the concentration for total growth inhibition (TGI) in the experiment with KM12 colon, in the experiment on LOX IMVI melanoma, in the experiment with HL-60(TB) leukemia, with UACC-62 melanoma, in the experiment with IGROV1 ovarian and in the experiment on DU-145 prostate was above 100 µM in each case. Besides, the TGI with HCC-2998 colon, with NCI-H23 lung, with NCI/ADR-RES ovarian and with BT-549 breast was above 100 µM throughout.
As for `Nc1nc(-c2cccc([N+](=O)[O-])c2)cc(-c2cc(-c3cccc([N+](=O)[O-])c3)nc(N)n2)n1`, the TGI in the experiment on KM12 colon, in the experiment with LOX IMVI melanoma, in the experiment on HL-60(TB) leukemia, in the experiment on UACC-62 melanoma, with IGROV1 ovarian and with DU-145 prostate was above 100 µM each time. Besides, the TGI in the experiment with HCC-2998 colon, with NCI-H23 lung, in the experiment with NCI/ADR-RES ovarian and in the experiment with BT-549 breast was above 100 µM in each case.
Regarding `COc1ccc(-c2csc(NC(=O)c3cc(O)c(O)c(O)c3)n2)cc1`, the GI50 was 13.2 µM with KM12 colon; 6.57 µM in the experiment on LOX IMVI melanoma; 8.28 µM with HL-60(TB) leukemia; 5.87 µM in the experiment with UACC-62 melanoma; 6.69 µM with IGROV1 ovarian; 9.59 µM with DU-145 prostate. Besides, the GI50 with HCC-2998 colon is 17.2 µM; in the experiment on NCI-H23 lung it was 11.2 µM; in the experiment on NCI/ADR-RES ovarian it was 11.2 µM; with BT-549 breast it was 10.9 µM. For the same compound, the TGI (usually the concentration giving total growth inhibition) in the experiment with KM12 colon was above 33.3 µM; in the experiment with LOX IMVI melanoma it was above 33.3 µM; in the experiment on HL-60(TB) leukemia, 23.9 µM; with UACC-62 melanoma, above 33.3 µM; in the experiment on IGROV1 ovarian, 32.6 µM; in the experiment on DU-145 prostate it was above 33.3 µM. Besides, the concentration for total growth inhibition (TGI) in the experiment on HCC-2998 colon, in the experiment on NCI-H23 lung, in the experiment on NCI/ADR-RES ovarian and with BT-549 breast was above 33.3 µM throughout.
Consider `C[C@H](N)C(=O)N1C[C@H](CCCB(O)O)[C@](N)(C(=O)O)C1`, for which the GI50 in the experiment on KM12 colon, in the experiment on LOX IMVI melanoma, in the experiment on HL-60(TB) leukemia, with UACC-62 melanoma, in the experiment on IGROV1 ovarian and with DU-145 prostate was above 100 µM each time. Besides, the GI50 with HCC-2998 colon, in the experiment with NCI-H23 lung, with NCI/ADR-RES ovarian and with BT-549 breast was above 100 µM in each case. For the same compound, the TGI in the experiment on KM12 colon, in the experiment with LOX IMVI melanoma, with HL-60(TB) leukemia, in the experiment with UACC-62 melanoma, in the experiment with IGROV1 ovarian and in the experiment on DU-145 prostate was above 100 µM each time. Besides, the TGI with HCC-2998 colon, with NCI-H23 lung, in the experiment on NCI/ADR-RES ovarian and in the experiment on BT-549 breast was above 100 µM each time.
In the case of `COc1ccc(N(C)c2c3ccccc3nc3[nH]c4ccccc4c23)cc1`, the GI50 in the experiment on KM12 colon was 0.296 µM; in the experiment on LOX IMVI melanoma, 0.55 µM; with HL-60(TB) leukemia, 0.112 µM; with UACC-62 melanoma it was 0.875 µM; in the experiment on IGROV1 ovarian, 2.19 µM; in the experiment on DU-145 prostate, 0.675 µM. Besides, the GI50 was 0.268 µM in the experiment on HCC-2998 colon, 0.702 µM in the experiment on NCI-H23 lung, 2.95 µM in the experiment on NCI/ADR-RES ovarian and 1.24 µM with BT-549 breast. The TGI in the experiment on KM12 colon worked out at 1.24 µM; in the experiment with LOX IMVI melanoma, 1.58 µM; with HL-60(TB) leukemia it was 0.466 µM; in the experiment with UACC-62 melanoma, 2.64 µM; with IGROV1 ovarian, 13.5 µM; in the experiment with DU-145 prostate, 3.69 µM. The concentration for total growth inhibition (TGI) is 1.02 µM in the experiment on HCC-2998 colon, 2.04 µM in the experiment on NCI-H23 lung, 9.91 µM with NCI/ADR-RES ovarian and 4.39 µM in the experiment with BT-549 breast.
In the case of `NC1CCC(N[C@@H]2C[C@H]2c2ccccc2)CC1` (stereo not given in full), the GI50 is above 100 µM in the experiment on KM12 colon; 69.6 µM in the experiment on LOX IMVI melanoma; above 100 µM in the experiment on HL-60(TB) leukemia; 33.6 µM with UACC-62 melanoma; 92.5 µM in the experiment on IGROV1 ovarian; above 100 µM with DU-145 prostate. Moreover, the GI50 in the experiment with HCC-2998 colon, in the experiment with NCI-H23 lung, in the experiment with NCI/ADR-RES ovarian and in the experiment on BT-549 breast was above 100 µM throughout. The total growth inhibition concentration (TGI) in the experiment with KM12 colon, in the experiment on LOX IMVI melanoma, with HL-60(TB) leukemia, in the experiment on UACC-62 melanoma, with IGROV1 ovarian and in the experiment on DU-145 prostate was above 100 µM in each case. Also, the concentration for total growth inhibition (TGI) with HCC-2998 colon, in the experiment with NCI-H23 lung, with NCI/ADR-RES ovarian and in the experiment on BT-549 breast was above 100 µM throughout.
Consider `O=C(Nc1ccccc1)Nc1cccc(Oc2nnc(Cl)c3ccccc23)c1`, for which the GI50 in the experiment with KM12 colon was 5.51 µM; with LOX IMVI melanoma it was 3.46 µM; in the experiment on HL-60(TB) leukemia, 2.7 µM; with UACC-62 melanoma, 6.84 µM; with IGROV1 ovarian, 3.32 µM; in the experiment with DU-145 prostate, 3.01 µM. Besides, the GI50 in the experiment with HCC-2998 colon was 4.2 µM; in the experiment with NCI-H23 lung, 3.72 µM; in the experiment with NCI/ADR-RES ovarian, 2.63 µM; with BT-549 breast it was 3.06 µM. In addition, the total growth inhibition concentration (TGI) was above 25 µM in the experiment on KM12 colon; 6.8 µM in the experiment on LOX IMVI melanoma; above 25 µM in the experiment with HL-60(TB) leukemia; above 25 µM in the experiment with UACC-62 melanoma; 7.92 µM in the experiment with IGROV1 ovarian; 10.5 µM in the experiment with DU-145 prostate. Further, the TGI in the experiment on HCC-2998 colon was 12.2 µM; with NCI-H23 lung it was 9.44 µM; in the experiment on NCI/ADR-RES ovarian it was 6.39 µM; with BT-549 breast, 10.8 µM.
Turning to `CC1(C)CC(Nc2ccc(Nc3ccccc3)cc2)CC(C)(C)N1`, the TGI with KM12 colon was found to be 71.2 µM; with LOX IMVI melanoma, 43.1 µM; in the experiment on HL-60(TB) leukemia, 19.2 µM; in the experiment with UACC-62 melanoma, 28.1 µM; with IGROV1 ovarian, 78.6 µM; in the experiment on DU-145 prostate it was 61.1 µM. The TGI worked out at 32.7 µM in the experiment on HCC-2998 colon, 63.7 µM with NCI-H23 lung, 66.9 µM with NCI/ADR-RES ovarian and 27 µM in the experiment with BT-549 breast.
For the compound `CC(=O)OC1Oc2ccccc2-c2oc(=O)c(-c3cc4ccccc4oc3=O)cc21` (stereo not given), the GI50 in the experiment with KM12 colon was 41.4 µM; in the experiment with LOX IMVI melanoma, 14.9 µM; with HL-60(TB) leukemia, 39 µM; with UACC-62 melanoma, 17.4 µM; in the experiment with IGROV1 ovarian, 20.5 µM; with DU-145 prostate, 20.1 µM. Besides, the GI50 in the experiment with HCC-2998 colon is 57.7 µM; with NCI-H23 lung, 24 µM; in the experiment with NCI/ADR-RES ovarian it was 22.5 µM; in the experiment on BT-549 breast it was 18.6 µM. The TGI is above 100 µM in the experiment with KM12 colon; 29.6 µM with LOX IMVI melanoma; above 100 µM in the experiment with HL-60(TB) leukemia; 35.1 µM in the experiment with UACC-62 melanoma; 48.6 µM in the experiment with IGROV1 ovarian; 52.5 µM with DU-145 prostate. The TGI in the experiment with HCC-2998 colon is above 100 µM; in the experiment with NCI-H23 lung, 52.4 µM; in the experiment with NCI/ADR-RES ovarian it was 51.3 µM; in the experiment with BT-549 breast, 40.1 µM.
With `CC(C)c1ccc(NC(=S)NC(=O)c2ccccc2)cc1`, the TGI was found to be 46.5 µM with KM12 colon; 31.2 µM in the experiment with LOX IMVI melanoma; 32.3 µM in the experiment on HL-60(TB) leukemia; 30.7 µM in the experiment with UACC-62 melanoma; 68.4 µM in the experiment on IGROV1 ovarian; 70.8 µM with DU-145 prostate. In addition, the TGI with HCC-2998 colon is 39.4 µM; in the experiment on NCI-H23 lung it was 68 µM; in the experiment on NCI/ADR-RES ovarian, above 100 µM; in the experiment on BT-549 breast, 60.6 µM.
`CCCN(CCSSCCNc1nc(N(C)O)nc(N(C)O)n1)c1nc(N(C)O)nc(N(C)O)n1`: the GI50 in the experiment with KM12 colon was 6.25 µM; in the experiment with LOX IMVI melanoma it was 6.63 µM; with HL-60(TB) leukemia, 3.31 µM; with UACC-62 melanoma, 4.39 µM; in the experiment with IGROV1 ovarian it was 32.3 µM; in the experiment on DU-145 prostate it was 8.78 µM. Moreover, the GI50 in the experiment with HCC-2998 colon is 4.73 µM; with NCI-H23 lung it was 18 µM; in the experiment on NCI/ADR-RES ovarian, 6.48 µM; with BT-549 breast, 7.6 µM. Moreover, the TGI with KM12 colon was above 100 µM; in the experiment on LOX IMVI melanoma, above 100 µM; in the experiment on HL-60(TB) leukemia, above 100 µM; with UACC-62 melanoma, 28.9 µM; in the experiment with IGROV1 ovarian it was above 100 µM; with DU-145 prostate it was above 100 µM. The TGI in the experiment with HCC-2998 colon, with NCI-H23 lung, with NCI/ADR-RES ovarian and in the experiment on BT-549 breast was above 100 µM each time.

The values above are taken from PubChem BioAssay (NCI).
